Patent publication US7348017B2, “Dithiazole compounds, matrix metalloprotease inhibitors and external preparations for the skin” (Shiseido Co., Ltd., priority 2001, dated 2008)

Target: T1, MMP-9 (crude enzyme solution derived from a mouse skin) (Mus musculus, UniProt P41245)
T1 construct: crude enzyme solution derived from a mouse skin; from tissue; host or cells: mouse skin
Test: Gelatinase group MMPs inhibition test (gelatin zymography)
Assay type: biochemical
Parameters: key: ⊚: The band disappeared.; ◯: The band was slightly confirmed.; Δ: The band became narrower than control.; ×: Unchanged
Conditions: sample solution 100 μM; gel incubated overnight; size of MMP-9 band compared with control solution
Method: A test material was dissolved in dimethyl sulfoxide (DMSO) to the concentration of 10 mM, to prepare a stock solution. The stock solution was diluted with a measuring buffer (0.05M tris at pH 7.5 containing 0.2M NaCl and 5 mM CaCl2) to adjust the concentration to 100 μM, which was used as a sample solution. As a control solution, a solution containing no test material was similarly prepared.
(b) Gelatinase Group MMPs Inhibition Test
As a gelatinase group enzyme, MMP-9 (crude enzyme solution derived from a mouse skin) was used. The test was performed according to a gelatin zymography method (“Bio-antioxidant provitamin C”, Nobuhiko Miwa ed., p.76, 1999, Fragrance Journal, Tokyo).
That is, a gel containing gelatin in which a predetermined amount of the crude enzyme solution had been subjected to electrophoresis in advance, was incubated overnight with a sample solution or a control solution. After the gel was stained, the appearing band corresponding to MMP-9 was evaluated by a decrease when its size compared with that of a band of control solution. Evaluation criteria was as follows: • ⊚: The band disappeared. • ◯: The band was slightly confirmed. • Δ: The band became narrower than control. • ×: Unchanged.

T1 sequence (P41245 108-730): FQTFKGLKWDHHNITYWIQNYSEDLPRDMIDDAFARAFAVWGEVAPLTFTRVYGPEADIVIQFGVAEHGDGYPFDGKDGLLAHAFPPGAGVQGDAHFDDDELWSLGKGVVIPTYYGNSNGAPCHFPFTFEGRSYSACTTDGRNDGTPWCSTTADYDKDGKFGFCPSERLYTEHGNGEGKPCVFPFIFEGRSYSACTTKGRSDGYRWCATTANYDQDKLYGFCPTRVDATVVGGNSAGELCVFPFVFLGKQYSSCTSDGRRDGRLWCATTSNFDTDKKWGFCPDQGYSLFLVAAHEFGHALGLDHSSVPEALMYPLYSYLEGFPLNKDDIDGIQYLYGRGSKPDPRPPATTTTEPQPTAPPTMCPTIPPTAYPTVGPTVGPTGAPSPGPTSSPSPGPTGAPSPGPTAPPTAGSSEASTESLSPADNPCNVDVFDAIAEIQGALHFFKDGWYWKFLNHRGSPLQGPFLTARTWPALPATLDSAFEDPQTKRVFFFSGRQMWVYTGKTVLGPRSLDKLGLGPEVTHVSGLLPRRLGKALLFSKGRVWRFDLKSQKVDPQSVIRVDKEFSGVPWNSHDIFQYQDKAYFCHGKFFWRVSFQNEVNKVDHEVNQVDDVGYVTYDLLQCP

Row | MMPs Inhibition | SMILES
1 | ◯ | O=C(Cc1cccc(OCc2ccc(F)cc2)c1)Nc1nc(=S)ss1 [Compound 8, 2-{3-[(4-Fluorobenzyl)oxy]phenyl}-N-(3-thioxo-3H-1,2,4-dithiazol-5-yl)acetoamide]
2 | ◯ | O=C(Cc1ccc(OCc2ccc(F)cc2)cc1)Nc1nc(=S)ss1 [Compound 5, 2-{4-[(4-Fluorobenzyl)oxy]phenyl}-N-(3-thioxo-3H-1,2,4-dithiazol-5-yl)acetoamide]
3 | ⊚ | CC(C)C(C(=O)Nc1nc(=S)ss1)c1ccc(OCc2ccc(F)cc2)cc1 (stereo not shown) [Compound 12, 2-{4-[(4-Fluorobenzyl)oxy]phenyl}-3-methyl-N-(3-thioxo-3H-1,2,4-dithiazol-5-yl)butanamide]
4 | ◯ | O=C(Cc1ccccc1OCc1ccc(F)cc1)Nc1nc(=S)ss1 [Compound 7, 2-{2-[(4-Fluorobenzyl)oxy]phenyl}-N-(3-thioxo-3H-1,2,4-dithiazol-5-yl)acetoamide]
5 | ◯ | COc1ccc(S(=O)(=O)N(CC(=O)Nc2nc(=S)ss2)Cc2ccccc2)cc1 [Compound 1, 2-{Benzyl[(4-methoxyphenyl)sulfonyl]amino}-N-(3-thioxo-3H-1,2,4-dithiazol-5-yl) acetoamide]
6 | ◯ | CC(C)=CCC/C(C)=C/COc1ccc(CC(=O)Nc2nc(=S)ss2)cc1 [Compound 2, 2-{4-[(3,7-Dimethyl-2,6-octadienyl)oxy]phenyl}-N-(3-thioxo-3H-1,2,4-dithiazol-5-yl)acetoamide]
7 | ◯ | O=C(Cc1cc(OCc2ccc(F)cc2)cc(OCc2ccc(F)cc2)c1)Nc1nc(=S)ss1 [Compound 9, 2-{3,5-Bis[(4-fluorobenzyl)oxy]phenyl}-N-(3-thioxo-3H-1,2,4-dithiazol-5-yl)acetoamide]
